Experimental data as given in paper PMC10826971, “Evaluating protein cross-linking as a therapeutic strategy to stabilize SOD1 variants in a mouse model of familial ALS” (PLOS Biology, 2024).
“And” between values parts separate entries of the source, which are not always exact repeats. Equal values may be shown once. “Also recorded” adds a separate entry of the source.

Assays:
[1] = system: NSC-34 cells expressing EGFP-G93A; experiment: Relative cell viability of transfected NSC-34 cells; assay type: cell-based, mouse; conditions: for Viability %: G93A, 48 h, replicates
Description: Transfected NSC-34 cells were plated out into 96-well plates and left overnight. […] Cells were then fixed using 4% (w/v) paraformaldehyde in 1×PBS for 20 min. Plates for imaging were then processed as previously described with some changes. Cells were imaged using a DMi8 epifluorescent microscope (Leica, Germany) fitted with a Mercury Arc Lamp, a 10× 0.25NA (CAT NO) air objective and an automated stage. A software-based autofocus strategy was utilized to focus on the GFP signal within cells, with a subsequent image being taken in the DAPI channel to view Hoescht-stained nuclei. Relative focus correction was applied between channels to offset emission wavelength effects to the focal plane. Following image acquisition, images were corrected for illumination variation via a background method and processed using a combination of FIJI [66], StarDist, CellProfiler, and CellProfiler Analyst as previously described.
Image set data taken from the previous inclusion formation assay were used to examine both relative cell viability and relative levels of SOD1-EGFP. To determine relative viability, we extracted the total number of transfected cells in each treatment group and normalized the values to the untreated group to determine the relative number of cells at assay endpoint.

B6 G93A mice = experiment: Survival study, congenic B6 G93A/YFP mice, S-XL6 50 mg/kg SC on weekdays from day 108; assay type: in vivo, mouse; set-up: Dosed remained: unit not given here
From the text: Two fALS lines were used to assess survival in genetic backgrounds with different disease severity. […] Dose and dose regimen were estimated from the blood PK/PD profile and BBB penetration described above. A subcutaneous (SC) route of administration was chosen because in our hands it results in more precise delivery. […] In both studies, mice were gender and littermate matched and non ALS-related deaths were excluded. We are currently developing the methods necessary for quantifying copy number and cannot rule out reduced SOD1 expression as having contributed to the survival benefit in treated B6 G93A mice.
The first line was derived by crossing (over >10 generations) congenic fALS “B6 G93A mice” (B6.Cg-Tg(SOD1*G93A)1Gur/J, Stock No. 004435, The Jackson Laboratory, Bar Harbor, Maine, USA) with “YFP-16 mice” [50] (B6.Cg-Tg(Thy1-YFP)16Jrs/J, Stock No. 003709, The Jackson Laboratory, Bar Harbor, Maine, USA). This line maintains the C57BL/6J genetic background and expresses YFP in motor and sensory neurons to enable cellular-level molecular profiling in future studies. The second line is the standard “Hybrid B6SJL G93A mice” (B6SJL-Tg(SOD1*G93A)1Gur/J Stock No. 002726, The Jackson Laboratory, Bar Harbor, Maine, USA). Methods for survival studies have been described and followed the conventions for optimal trial design with fALS mice. Mice were tested for difference in: (1) disease onset (at least a 20% decrease in grip strength and open-field motor performance, which we expect to correlate with change in weight); (2) disease end-stage (disease score, e.g., loss of righting reflex); and (3) weight. The hybrid line was additionally tested for differences in forelimb and hindlimb grip strength.

`[O-][S+]1CCCCS1` (centres unmarked) [S-XL6, 1,2-dithiane-1-oxide] was tested, and the “survival/viability of cells expressing EGFP-labeled G93A” value [1] was “did not affect”, the Viability % ([1]; 5 uM) was 106.323% and 98.5697% and 106.015% and 108.827% and the Viability % ([1]; 10 uM) was 107.355% and 99.404% and 108.897% and 105.562%. The Viability % ([1]; 20 uM) was 94.1936% and 84.8629% and 91.604% and 88.2709%, the survival benefit (B6 G93A mice; 50 mg/kg SC from day 108) was “modest survival benefit; also recorded: modest survival improvement” and the “clinical signs immediately after dosing” value (B6 G93A mice; SC dosing) was “lethargy and shaking that subsided after 20 min”. For the same compound, the Dosed remained (B6 G93A mice; day 0) was 100, the Dosed remained (B6 G93A mice; day 125) was 100 and the Dosed remained (B6 G93A mice; day 125.999) was 100. It also gave a Dosed remained (B6 G93A mice; day 127.999) of 100, a Dosed remained (B6 G93A mice; day 128) of 100 and a Dosed remained (B6 G93A mice; day 128.999) of 100. It also gave a Dosed remained (B6 G93A mice; day 129) of 100, a Dosed remained (B6 G93A mice; day 129.999) of 100 and a Dosed remained (B6 G93A mice; day 130) of 100. It also gave a Dosed remained (B6 G93A mice; day 130.999) of 100, a Dosed remained (B6 G93A mice; day 131) of 100 and a Dosed remained (B6 G93A mice; day 131.999) of 100. The Dosed remained (B6 G93A mice; day 132) was 100, the Dosed remained (B6 G93A mice; day 132.999) was 100 and the Dosed remained (B6 G93A mice; day 133) was 100. For the same compound, the Dosed remained (B6 G93A mice; day 133.999) was 100, the Dosed remained (B6 G93A mice; day 134) was 100 and the Dosed remained (B6 G93A mice; day 134.999) was 100. For the same compound, the Dosed remained (B6 G93A mice; day 135) was 100, the Dosed remained (B6 G93A mice; day 135.999) was 100 and the Dosed remained (B6 G93A mice; day 136) was 100. It also gave a Dosed remained (B6 G93A mice; day 136.999) of 100, a Dosed remained (B6 G93A mice; day 137) of 100 and a Dosed remained (B6 G93A mice; day 137.999) of 100. For the same compound, the Dosed remained (B6 G93A mice; day 138) was 100, the Dosed remained (B6 G93A mice; day 138.999) was 100 and the Dosed remained (B6 G93A mice; day 139) was 100. The Dosed remained (B6 G93A mice; day 139.999) was 100, the Dosed remained (B6 G93A mice; day 140) was 100 and the Dosed remained (B6 G93A mice; day 140.999) was 100. For the same compound, the Dosed remained (B6 G93A mice; day 141) was 100, the Dosed remained (B6 G93A mice; day 141.999) was 100 and the Dosed remained (B6 G93A mice; day 142) was 100. For the same compound, the Dosed remained (B6 G93A mice; day 142.999) was 100, the Dosed remained (B6 G93A mice; day 143) was 100 and the Dosed remained (B6 G93A mice; day 143.999) was 100. For the same compound, the Dosed remained (B6 G93A mice; day 144) was 100, the Dosed remained (B6 G93A mice; day 144.999) was 100 and the Dosed remained (B6 G93A mice; day 145) was 100. For the same compound, the Dosed remained (B6 G93A mice; day 145.999) was 100, the Dosed remained (B6 G93A mice; day 146) was 100 and the Dosed remained (B6 G93A mice; day 146.999) was 100. For the same compound, the Dosed remained (B6 G93A mice; day 147) was 100, the Dosed remained (B6 G93A mice; day 147.999) was 100 and the Dosed remained (B6 G93A mice; day 148) was 100. The Dosed remained (B6 G93A mice; day 148.999) was 100, the Dosed remained (B6 G93A mice; day 149) was 100 and the Dosed remained (B6 G93A mice; day 149.999) was 100. For the same compound, the Dosed remained (B6 G93A mice; day 150) was 100, the Dosed remained (B6 G93A mice; day 150.999) was 100 and the Dosed remained (B6 G93A mice; day 151) was 100. For the same compound, the Dosed remained (B6 G93A mice; day 151.999) was 100, the Dosed remained (B6 G93A mice; day 152) was 100 and the Dosed remained (B6 G93A mice; day 152.999) was 100. The Dosed remained (B6 G93A mice; day 153) was 100, the Dosed remained (B6 G93A mice; day 153.999) was 100 and the Dosed remained (B6 G93A mice; day 154) was 100. It also gave a Dosed remained (B6 G93A mice; day 154.999) of 100, a Dosed remained (B6 G93A mice; day 155) of 100 and a Dosed remained (B6 G93A mice; day 155.999) of 100. The Dosed remained (B6 G93A mice; day 156) was 100, the Dosed remained (B6 G93A mice; day 156.999) was 100 and the Dosed remained (B6 G93A mice; day 157) was 70. It also gave a Dosed remained (B6 G93A mice; day 172.999) of 30, a Dosed remained (B6 G93A mice; day 173) of 30 and a Dosed remained (B6 G93A mice; day 173.999) of 30. The Dosed remained (B6 G93A mice; day 174) was 30, the Dosed remained (B6 G93A mice; day 174.999) was 30 and the Dosed remained (B6 G93A mice; day 175) was 30. For the same compound, the Dosed remained (B6 G93A mice; day 175.999) was 30, the Dosed remained (B6 G93A mice; day 176) was 30 and the Dosed remained (B6 G93A mice; day 176.999) was 30. For the same compound, the Dosed remained (B6 G93A mice; day 177) was 30, the Dosed remained (B6 G93A mice; day 177.999) was 30 and the Dosed remained (B6 G93A mice; day 178) was 20. For the same compound, the Dosed remained (B6 G93A mice; day 178.999) was 20, the Dosed remained (B6 G93A mice; day 179) was 20 and the Dosed remained (B6 G93A mice; day 179.999) was 20. The Dosed remained (B6 G93A mice; day 180) was 20, the Dosed remained (B6 G93A mice; day 180.999) was 20 and the Dosed remained (B6 G93A mice; day 181) was 20. The Dosed remained (B6 G93A mice; day 181.999) was 20, the Dosed remained (B6 G93A mice; day 182) was 20 and the Dosed remained (B6 G93A mice; day 182.999) was 20. The Dosed remained (B6 G93A mice; day 183) was 20, the Dosed remained (B6 G93A mice; day 183.999) was 20 and the Dosed remained (B6 G93A mice; day 184) was 20. The Dosed remained (B6 G93A mice; day 184.999) was 20, the Dosed remained (B6 G93A mice; day 185) was 10 and the Dosed remained (B6 G93A mice; day 185.999) was 10. For the same compound, the Dosed remained (B6 G93A mice; day 186) was 10, the Dosed remained (B6 G93A mice; day 186.999) was 10 and the Dosed remained (B6 G93A mice; day 187) was 10. The Dosed remained (B6 G93A mice; day 187.999) was 10, the Dosed remained (B6 G93A mice; day 188) was 10 and the Dosed remained (B6 G93A mice; day 188.999) was 10. The Dosed remained (B6 G93A mice; day 189) was 10, the Dosed remained (B6 G93A mice; day 189.999) was 10 and the Dosed remained (B6 G93A mice; day 190) was 0. It also gave a Dosed remained (B6 G93A mice; day 190.999) of 0 and a survival (B6 G93A mice; dosed, mean +/− STD, control 153 +/− 15 days) of 169 ± 11 days.
